Laboratory results taken from the supplement of paper PMC13380429.

Tests used:
Settings in all cases: 72 h
HepG2 [1] = experiment: cell viability relative to DMSO; higher = less toxic
Caco-2 [2] = experiment: as above
Vero E6 [3] = experiment: as above
U2OS [4] = experiment: as above
Calu-3 [5] = experiment: as above
HepG2 [6] = experiment: drug sensitivity score (DSS) for viability; higher = more toxic; extreme values may be limits of the assay
Caco-2 [7] = experiment: as above
Vero E6 [8] = experiment: as above
U2OS [9] = experiment: as above
Calu-3 [10] = experiment: as above
HepG2 [11] = experiment: relative viability EC50 (midpoint between 100% and the lowest measured viability); higher = less toxic
Caco-2 [12] = experiment: as above
Vero E6 [13] = experiment: as above
U2OS [14] = experiment: as above
Calu-3 [15] = experiment: as above

| SMILES | cell viability (HepG2 [1]; 1 nM) | cell viability (HepG2 [1]; 10 nM) | cell viability (HepG2 [1]; 100 nM) | cell viability (HepG2 [1]; 1000 nM) | cell viability (HepG2 [1]; 10000 nM) | cell viability (Caco-2 [2]; 1 nM) | cell viability (Caco-2 [2]; 10 nM) | cell viability (Caco-2 [2]; 100 nM) | cell viability (Caco-2 [2]; 1000 nM) | cell viability (Caco-2 [2]; 10000 nM) | cell viability (Vero E6 [3]; 1 nM) | cell viability (Vero E6 [3]; 10 nM) | cell viability (Vero E6 [3]; 100 nM) | cell viability (Vero E6 [3]; 1000 nM) | cell viability (Vero E6 [3]; 10000 nM) | cell viability (U2OS [4]; 1 nM) | cell viability (U2OS [4]; 10 nM) | cell viability (U2OS [4]; 100 nM) | cell viability (U2OS [4]; 1000 nM) | cell viability (U2OS [4]; 10000 nM) | cell viability (Calu-3 [5]; 1 nM) | cell viability (Calu-3 [5]; 10 nM) | cell viability (Calu-3 [5]; 100 nM) | cell viability (Calu-3 [5]; 1000 nM) | cell viability (Calu-3 [5]; 10000 nM) | drug sensitivity score (HepG2 [6]) | drug sensitivity score (Caco-2 [7]) | drug sensitivity score (Vero E6 [8]) | drug sensitivity score (U2OS [9]) | drug sensitivity score (Calu-3 [10]) | relative viability EC50 (HepG2 [11]) | relative viability EC50 (Caco-2 [12]) | relative viability EC50 (Vero E6 [13]) | relative viability EC50 (U2OS [14]) | relative viability EC50 (Calu-3 [15]) |
| --- | --- | --- | --- | --- | --- | --- | --- | --- | --- | --- | --- | --- | --- | --- | --- | --- | --- | --- | --- | --- | --- | --- | --- | --- | --- | --- | --- | --- | --- | --- | --- | --- | --- | --- | --- |
| CN1C[C@@H](NS(=O)(=O)N(C)C)C[C@@H]2c3cccc4c3c(cn4C)C[C@H]21 [mesulergine] | 101% | 99.3% | 106% | 108% | 100% | 108% | 102% | 105% | 98.9% | 108% | 97.5% | 104% | 94.1% | 97.9% | 94.9% | 103% | 100% | 101% | 101% | 99.9% | 111% | 106% | 107% | 96.1% | 102% | 0 | 0 | 0 | 0 | 0 | > 10 µM | > 10 µM | > 10 µM | > 10 µM | > 10 µM |
| Clc1ccc(C(c2ccccc2Cl)C(Cl)Cl)cc1 (stereo not given) [mitotane] | 89.9% | 89.9% | 87.9% | 85.4% | 94.6% | 100% | 90.7% | 97.9% | 99.4% | 91.9% | 106% | 96.6% | 101% | 101% | 97.6% | 98.5% | 93.2% | 98.6% | 97.7% | 97.7% | 92.8% | 102% | 89.1% | 97.1% | 99.6% | 0 | 0 | 0 | 0 | 0 | > 10 µM | > 10 µM | > 10 µM | > 10 µM | > 10 µM |
| O=C(OCCN1CCOCC1)c1cccnc1Nc1cccc(C(F)(F)F)c1 [morniflumate] | 90.8% | 93.8% | 87.3% | 94.7% | 88.4% | 120% | 103% | 99% | 102% | 80.1% | 107% | 100% | 102% | 105% | 99.3% | 96.5% | 104% | 97.8% | 97.8% | 97.3% | 91.9% | 97.1% | 102% | 106% | 108% | 0 | 0.5 | 0 | 0 | 0 | > 10 µM | > 10 µM | > 10 µM | > 10 µM | > 10 µM |
| O=C1C[C@@H](c2ccc(O)cc2)Oc2cc(O)cc(O)c21 [naringenin] | 104% | 107% | 99.3% | 95.1% | 99.9% | 114% | 103% | 90.3% | 97.2% | 88.5% | 101% | 99.7% | 101% | 94% | 93.3% | 98.9% | 104% | 95.6% | 102% | 103% | 93.2% | 97.9% | 89.9% | 99.7% | 93.7% | 0 | 0 | 0 | 0 | 0 | > 10 µM | > 10 µM | > 10 µM | > 10 µM | > 10 µM |
| NCCCCCC(O)(P(=O)(O)O)P(=O)(O)O [neridronic-acid] | 100% | 110% | 111% | 97.9% | 86.2% | 108% | 95% | 88.9% | 107% | 76.5% | 91.5% | 95.8% | 92.8% | 94.2% | 96.8% | 99.9% | 95.9% | 98.8% | 92.8% | 108% | 90.2% | 83.3% | 92% | 93.9% | 106% | 0.3 | 0.6 | 0 | 0 | 0 | > 10 µM | > 10 µM | > 10 µM | > 10 µM | > 10 µM |
| Oc1ccc2c3c1O[C@H]1c4[nH]c5c(c4C[C@@]4(O)[C@@H](C2)N(CC2CC2)CC[C@]314)C[C@@]1(O)[C@H]2Cc3ccc(O)c4c3[C@@]1(CCN2CC1CC1)[C@H]5O4 [nor-binaltorphimine] | 93.7% | 108% | 111% | 105% | 99.2% | 97.9% | 90.4% | 100% | 102% | 106% | 92.5% | 98.3% | 91.2% | 95.7% | 108% | 103% | 109% | 106% | 98.6% | 99% | 105% | 99.9% | 100% | 106% | 102% | 0 | 0 | 0 | 0 | 0 | > 10 µM | > 10 µM | > 10 µM | > 10 µM | > 10 µM |
| CC(C)(F)C[C@H](N[C@@H](c1ccc(-c2ccc(S(C)(=O)=O)cc2)cc1)C(F)(F)F)C(=O)NC1(C#N)CC1 [odanacatib] | 110% | 104% | 99.4% | 101% | 94.1% | 96.1% | 99.9% | 99.1% | 94.1% | 90.4% | 101% | 98.8% | 99.8% | 99.4% | 106% | 103% | 108% | 93.3% | 102% | 94.8% | 98.3% | 97.1% | 100% | 115% | 98.7% | 0 | 0 | 0 | 0 | 0 | > 10 µM | > 10 µM | > 10 µM | > 10 µM | > 10 µM |
| CC(C)CCC[C@@H](C)[C@H]1CC[C@H]2[C@@H]3CCC4=CC(=NO)CC[C@]4(C)[C@H]3CC[C@]12C [olesoxime] | 100% | 96.5% | 95.3% | 103% | 97.4% | 99.2% | 87.1% | 102% | 97.6% | 99.1% | 97.2% | 98.6% | 96.5% | 98.6% | 94.3% | 101% | 95.9% | 98% | 95.3% | 100% | 97.3% | 95.6% | 90.7% | 100% | 93.9% | 0 | 0 | 0 | 0 | 0 | > 10 µM | > 10 µM | > 10 µM | > 10 µM | > 10 µM |
| OCCOc1ccc(/C(=C(/CCCl)c2ccccc2)c2ccccc2)cc1 [ospemifene] | 99.5% | 97% | 103% | 107% | 106% | 103% | 108% | 104% | 91.3% | 78% | 97.9% | 102% | 101% | 99.9% | 94.2% | 98.4% | 104% | 98.1% | 101% | 93.1% | 96.7% | 103% | 106% | 96.6% | 101% | 0 | 1.7 | 0 | 0 | 0 | > 10 µM | > 10 µM | > 10 µM | > 10 µM | > 10 µM |
| CCC(=O)NS(=O)(=O)c1ccc(-c2c(-c3ccccc3)noc2C)cc1 [parecoxib] | 88.9% | 90% | 94% | 94.2% | 90.1% | 99.5% | 96% | 96.6% | 98.9% | 95.7% | 97.7% | 101% | 95.6% | 95.6% | 93.6% | 103% | 113% | 103% | 94.1% | 99.2% | 106% | 94.3% | 94.4% | 92.5% | 108% | 0 | 0 | 0 | 0 | 0 | > 10 µM | > 10 µM | > 10 µM | > 10 µM | > 10 µM |
| CCCCCCCCCCCCCCCCCCOP(=O)([O-])OC1CC[N+](C)(C)CC1 [perifosine] | 96.2% | 96% | 97.7% | 106% | 112% | 96.4% | 90.9% | 100% | 96.5% | 106% | 92.7% | 98.9% | 93.6% | 96.5% | 101% | 98.7% | 95.2% | 103% | 95% | 99.2% | 106% | 98% | 106% | 86.8% | 95.4% | 0 | 0 | 0 | 0 | 0.8 | > 10 µM | > 10 µM | > 10 µM | > 10 µM | > 10 µM |
| C=C(C)[C@@H]1[C@H]2OC(=O)[C@@H]1[C@]1(O)C[C@H]3O[C@]34C(=O)O[C@H]2[C@]14C [picrotoxinin] | 109% | 108% | 106% | 97.4% | 98.4% | 108% | 102% | 99.2% | 103% | 96.1% | 97.2% | 95.6% | 97.5% | 102% | 99.5% | 101% | 98.4% | 98.3% | 98.4% | 97.2% | 104% | 107% | 92.8% | 94.5% | 92.6% | 0 | 0 | 0 | 0 | 0 | > 10 µM | > 10 µM | > 10 µM | > 10 µM | > 10 µM |
| O=[N+]([O-])c1nccn1CC(O)CN1CCCCC1 (stereo not given) [pimonidazole] | 95.8% | 111% | 94.9% | 95.4% | 108% | 94.1% | 86.5% | 100% | 87.4% | 102% | 99.1% | 98% | 94.7% | 108% | 106% | 94% | 96.4% | 102% | 95.3% | 106% | 93.6% | 93.2% | 99.9% | 97% | 107% | 0 | 0 | 0 | 0 | 0 | > 10 µM | > 10 µM | > 10 µM | > 10 µM | > 10 µM |
